In ChEMBL document CHEMBL1152082, “Topographical requirements for delta opioid ligands: The synthesis and biological properties of a cyclic analogue of deltorphin I” (Bioorg Med Chem Lett, 1992) one finds IC50 data, which are given here for two molecules.

The structures appear in SMILES notation. pIC50: −log10 of the molar value. Bridge positions count the residues as written; N and C are the ends. Square brackets hold non-standard residues; d marks the D form. Peptide text beside a SMILES is read from it.

The target in assay [1] is Mu-type opioid receptor (Rattus norvegicus, UniProt P33535). Put plainly: Binding affinity against Opioid receptor mu 1 with [3H]CTOP.
Assay [2] concerns the target Delta-type opioid receptor (Mus musculus, UniProt P32300). Put plainly: Inhibitory activity against Mouse vas deferens smooth muscle. It is filed as functional, tissue-based, Muscle tissue.
The target in assay [3] is Delta-type opioid receptor (Rattus norvegicus, UniProt P33533). Put plainly: Binding affinity against delta receptor with [3H][p-Cl-Phe4]-DPDPE.
Assay [4] has as its target Mu-type opioid receptor (Cavia porcellus, UniProt P97266). Put plainly: Inhibitory activity against Guinea pig ileum smooth muscle. It counts as functional, tissue-based.

Chain of Mu-type opioid receptor (Rattus norvegicus, UniProt P33535) (P33535 whole entry): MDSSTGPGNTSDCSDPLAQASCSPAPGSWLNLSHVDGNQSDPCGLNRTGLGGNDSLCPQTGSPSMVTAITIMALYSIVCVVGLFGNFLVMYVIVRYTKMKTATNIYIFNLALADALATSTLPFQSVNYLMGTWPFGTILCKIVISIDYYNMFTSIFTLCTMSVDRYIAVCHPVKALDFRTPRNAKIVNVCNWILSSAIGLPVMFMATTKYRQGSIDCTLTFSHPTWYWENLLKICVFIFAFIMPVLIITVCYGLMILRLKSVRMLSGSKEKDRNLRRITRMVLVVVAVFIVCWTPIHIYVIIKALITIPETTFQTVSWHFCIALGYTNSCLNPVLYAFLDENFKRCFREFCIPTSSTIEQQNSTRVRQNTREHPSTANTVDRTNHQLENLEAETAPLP
Chain of Delta-type opioid receptor (Rattus norvegicus, UniProt P33533) (P33533 whole entry): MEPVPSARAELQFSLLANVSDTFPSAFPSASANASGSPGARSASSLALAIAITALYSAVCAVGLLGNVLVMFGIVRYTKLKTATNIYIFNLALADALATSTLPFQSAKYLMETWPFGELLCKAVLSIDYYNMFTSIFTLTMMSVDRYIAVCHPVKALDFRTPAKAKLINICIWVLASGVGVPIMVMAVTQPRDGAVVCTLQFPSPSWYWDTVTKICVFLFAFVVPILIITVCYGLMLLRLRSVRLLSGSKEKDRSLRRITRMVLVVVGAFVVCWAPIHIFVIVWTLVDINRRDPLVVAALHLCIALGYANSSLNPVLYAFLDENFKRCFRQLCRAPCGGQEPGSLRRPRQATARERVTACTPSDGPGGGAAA
Chain of Mu-type opioid receptor (Cavia porcellus, UniProt P97266) (P97266 whole entry): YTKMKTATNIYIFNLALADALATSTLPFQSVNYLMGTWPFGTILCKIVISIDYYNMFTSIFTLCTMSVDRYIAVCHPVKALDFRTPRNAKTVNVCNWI
Chain of Delta-type opioid receptor (Mus musculus, UniProt P32300) (P32300 whole entry): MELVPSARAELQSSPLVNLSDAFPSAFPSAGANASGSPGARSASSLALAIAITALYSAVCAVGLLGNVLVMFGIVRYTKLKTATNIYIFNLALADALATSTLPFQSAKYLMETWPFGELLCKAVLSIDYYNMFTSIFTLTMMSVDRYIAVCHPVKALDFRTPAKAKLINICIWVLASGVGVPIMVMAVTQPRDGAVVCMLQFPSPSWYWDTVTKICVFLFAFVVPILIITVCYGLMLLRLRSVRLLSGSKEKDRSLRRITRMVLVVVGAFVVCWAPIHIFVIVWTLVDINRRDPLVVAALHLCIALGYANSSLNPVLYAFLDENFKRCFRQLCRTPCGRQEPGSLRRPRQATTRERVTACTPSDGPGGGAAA

Usually pIC50 stands for the IC50 on a negative log10 scale, so that one unit is a factor of ten. A low value points to a high IC50. In the case of `CC(C)[C@H](NC(=O)[C@@H]1CSSC[C@@H](NC(=O)[C@@H](N)Cc2ccc(O)cc2)C(=O)N[C@@H](Cc2ccccc2)C(=O)N[C@@H](CC(=O)O)C(=O)N1)C(=O)NCC(N)=O` (H-Y[dC]FDCVG-NH2; disulfide 2-5), the pIC50 at Mu-type opioid receptor [1] was 8.29; in assay [2], 9.64; in assay [3], 9.06; on Mu-type opioid receptor [4], 8.53.

With `CC(NC(=O)[C@@H](N)Cc1ccc(O)cc1)C(=O)N[C@@H](Cc1ccccc1)C(=O)N[C@@H](CC(=O)O)C(=O)N[C@H](C(=O)N[C@H](C(=O)NCC(N)=O)C(C)C)C(C)C` (single isomer, unassigned) [DELTORPHIN C], the values for the pIC50 (at Mu-type opioid receptor [1]; in assay [3]; against Mu-type opioid receptor [4]) were 5.67, 9.22 and 8.54, respectively.
